Molecules are shown by their SMILES.

Test [1] can be described thus: In vitro inhibition of human platelet aggregation induced by alpha-thrombin (at a concentration of 0.15 nM).
The target in test [2] is T1, Proteinase-activated receptor 1 (Homo sapiens, UniProt P25116).
T1 sequence (P25116 whole entry): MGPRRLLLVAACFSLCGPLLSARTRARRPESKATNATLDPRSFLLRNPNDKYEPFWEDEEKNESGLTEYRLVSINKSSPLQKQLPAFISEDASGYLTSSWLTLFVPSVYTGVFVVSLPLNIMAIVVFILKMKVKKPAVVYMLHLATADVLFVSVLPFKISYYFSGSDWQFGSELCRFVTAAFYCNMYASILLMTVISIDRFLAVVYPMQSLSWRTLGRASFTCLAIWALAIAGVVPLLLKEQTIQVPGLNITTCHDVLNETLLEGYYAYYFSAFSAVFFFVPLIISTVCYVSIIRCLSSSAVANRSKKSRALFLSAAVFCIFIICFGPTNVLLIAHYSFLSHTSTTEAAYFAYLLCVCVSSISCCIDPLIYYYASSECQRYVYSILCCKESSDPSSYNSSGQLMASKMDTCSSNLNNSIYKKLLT
Nature of the test: In vitro inhibition of human platelet aggregation induced by alpha-thrombin (at a concentration of 0.15 nM).

Test [3] deals with T1, Proteinase-activated receptor 1. In words: In vitro inhibition of human platelet aggregation induced by SFLLRN-NH2 (at a concentration of 2 uM).
Test [4] is described as follows: In vitro inhibition of human platelet aggregation induced by SFLLRN-NH2 (at a concentration of 2 uM).

`COC(=O)c1ccc(Cn2cc(CN3CCCC3)c3ccc(NC(=O)N[C@@H](Cc4ccc(OC)cc4)C(=O)N[C@@H](CCCNC(=N)N)C(=O)NCC4CCCCC4)cc32)cc1` [4-(6-{3-[(S)-1-[(S)-1-(Cyclohexylmethyl-carbamoyl)-4-guanidino-butylcarbamoyl]-2-(4-methoxy-phenyl)-ethyl]-ureido}-3-pyrrolidin-1-ylmethyl-indol-1-ylmethyl)-benzoic acid methyl ester] registered a half-maximal inhibitory concentration (IC50) in test [1] of 38700 nM.

For the compound `N=C(N)NCCC[C@H](NC(=O)[C@H](Cc1ccc(F)c(F)c1)NC(=O)Nc1ccc2c(CN3CCCC3)cn(Cc3c(Cl)cccc3Cl)c2c1)C(=O)NCc1ccccc1` [(S)-2-[(S)-2-{3-[1-(2,6-Dichloro-benzyl)-3-pyrrolidin-1-ylmethyl-1H-indol-6-yl]-ureido}-3-(3,4-difluoro-phenyl)-propionylamino]-5-guanidino-pentanoic acid benzylamide], in test [1], the IC50 stood at 570 nM.

As to `NC(N)=NCCCC(NC(=O)C(Cc1ccc([N+](=O)[O-])cc1)NC(=O)Nc1ccc2c(CN3CCCC3)cn(Cc3ccc(F)cc3)c2c1)C(=O)NCc1ccccc1` [(S)-2-[(S)-2-{3-[1-(4-Fluoro-benzyl)-3-pyrrolidin-1-ylmethyl-1H-indol-6-yl]-ureido}-3-(4-nitro-phenyl)-propionylamino]-5-guanidino-pentanoic acid benzylamide], the figures for the IC50 in test [2] and in test [3] were 6100 nM and 130 nM, respectively.

As to `CCN(CC)Cc1cn(Cc2ccccc2C)c2cc(NC(=O)N[C@@H](Cc3ccc(OC)cc3)C(=O)N[C@@H](CCCNC(=N)N)C(=O)NCCCc3ccccc3)ccc12` [(S)-2-[(S)-2-{3-[3-Diethylaminomethyl-1-(2-methyl-benzyl)-1H-indol-6-yl]-ureido}-3-(4-methoxy-phenyl)-propionylamino]-5-guanidino-pentanoic acid (3-phenyl-propyl)-amide], the IC50 was 3000 nM in test [1] and 230 nM in test [4].

As for `Cc1ccccc1Cn1cc(CN2CCCC2)c2ccc(NC(=O)NC(Cc3ccc([N+](=O)[O-])cc3)C(=O)NC(CCCNC(=N)N)C(=O)NCc3ccccc3)cc21` [(S)-5-Guanidino-2-[(S)-2-{3-[1-(2-methyl-benzyl)-3-pyrrolidin-1-ylmethyl-1H-indol-6-yl]-ureido}-3-(4-nitro-phenyl)-propionylamino]-pentanoic acid benzylamide], half-maximal inhibition in test [3] (IC50) was put at 150 nM.

As for `NCCCC[C@H](NC(=O)[C@H](Cc1ccc(F)c(F)c1)NC(=O)Nc1ccc2c(CN3CCCC3)cn(Cc3c(Cl)cccc3Cl)c2c1)C(=O)NCc1ccccc1` [(S)-6-Amino-2-[(S)-2-{3-[1-(2,6-dichloro-benzyl)-3-pyrrolidin-1-ylmethyl-1H-indol-6-yl]-ureido}-3-(3,4-difluoro-phenyl)-propionylamino]-hexanoic acid benzylamide], the IC50 was 700 nM in test [1] and 100 nM in test [4].

For `O=C(Nc1ccc2c(CN3CCCC3)cn(Cc3c(Cl)cccc3Cl)c2c1)N[C@@H](Cc1ccc(F)c(F)c1)C(=O)NC(Cc1cnc[nH]1)C(=O)NCc1ccccc1` (stereo partly drawn) [(S)-N-[1-Benzylcarbamoyl-2-(3H-imidazol-4-yl)-ethyl]-2-{3-[1-(2,6-dichloro-benzyl)-3-pyrrolidin-1-ylmethyl-1H-indol-6-yl]-ureido}-3-(3,4-difluoro-phenyl)-propionamide], the IC50 in test [1] is 460 nM; in test [4], 200 nM.

In the case of `COc1ccc(C[C@H](NC(=O)Nc2ccc3c(CN4CCCC4)cn(Cc4c(Cl)cccc4Cl)c3c2)C(=O)N[C@@H](CCCN=C(N)N)C(=O)NCc2ccccc2)cc1` [RWJ-54003], the IC50 in test [2] was determined as 900 nM.

One may read the IC50 as the concentration that gives 50% inhibition. Low values mean higher potency, high ones lower potency.
